Earlier results, collected in US20240368063A1, “PREPARATION METHOD, IN[…], AND SYNTHESIS METHOD FOR A CLASS OF ANTHRACENE-DERIVED TOXINS IN ORGANIC CHEMISTRY” (WUYAN PHARMACEUTICAL TECHNOLOGY (SHANGHAI) CO., LTD, priority 2022, published 2024).

Columns and labels:
[1] = system: human tumor cell lines; conditions: various tumor cell lines, including cells resistant to anthracyclines
[2] = system: topoisomerase II; conditions: at a concentration of 100 μM

COc1cccc2c1C(=O)c1c(O)c3c(c(O)c1C2=O)C[C@@](O)(C(=O)CO)C[C@@H]3O[C@H]1C[C@H]2[C@H](O[C@@H]3[C@@H](OC)OCCN32)[C@H](C)O1 [PNU-159682]
cytotoxicity compared to anthracyclines [1]: three orders of magnitude higher cytotoxicity
inhibition of the activity of topoisomerase II [2]: weakly inhibits
